Source: ChEMBL document CHEMBL1123782, “6-Alkoxy-N,N-disubstituted-2-pyridinamines as anticonvulsant agents” (1987)

How the values were obtained:
Format in all cases: functional
Mus musculus [1] = assay: Anticonvulsant activity expressed as minimum ataxic dose (MAD) at which mice fell off inverted screen at 30 min post administration
Mus musculus [2] = assay: Anticonvulsant activity expressed as minimum effective dose (MED) against tonic extension produced by maximal electroshock (MES) at 30 min post administration in mice; conditions: 0.5 h, read-out: MED
Mus musculus [3] = assay: Anticonvulsant activity was determined in mouse (administered perorally) tested for 1 hour using rotarod ataxia test (ADD program); conditions: po
Mus musculus [4] = assay: Anticonvulsant activity was determined in mouse (administered perorally) tested for 0.5 hours using inverted wire mesh ataxia test; conditions: po
Mus musculus [5] = assay: Anticonvulsant activity was determined in mouse (administered intraperitoneally) tested for 0.5 hours using maximal electroshock test (ADD program); conditions: ip
Mus musculus [6] = assay: Anticonvulsant activity was determined in mouse (administered intraperitoneally) for 0.5 hours using maximal electroshock test; conditions: ip
Mus musculus [7] = assay: Anticonvulsant activity was determined in mouse (administered intraperitoneally) tested for 0.5 hours using maximal electroshock test; conditions: ip
Mus musculus [8] = assay: Anticonvulsant activity was determined in mouse (administered perorally) for 0.5 hours using maximal electroshock test (ADD) program; conditions: po
Rattus norvegicus [9] = assay: Anticonvulsant activity was determined in rat (administered perorally) tested for 0.5 hours using maximal electroshock test; conditions: po
Mus musculus [10] = assay: Anticonvulsant activity was determined in mouse (administered perorally) tested for 1 hour using maximal electroshock test; conditions: po
Mus musculus [11] = assay: Anticonvulsant activity was determined in mouse (administered perorally) tested for 0.5 hours using maximal electroshock test (ADD program); conditions: po
Rattus norvegicus [12] = assay: Anticonvulsant activity was determined in rat (administered perorally) tested for 4 hours using ataxia test; conditions: po
Mus musculus [13] = assay: Anticonvulsant activity was determined in mouse (administered intraperitoneally) for 0.5 hours using inverted wire mesh ataxia test; conditions: ip
Mus musculus [14] = assay: Anticonvulsant activity was determined in mouse (administered intraperitoneally) for 0.5 hours using rotarod ataxia test (ADD program); conditions: ip
Mus musculus [15] = assay: Anticonvulsant activity was determined in mouse (administered intraperitoneally) for 0.5 hours using maximal electroshock test (ADD program); conditions: ip
Mus musculus [16] = assay: Anticonvulsant activity was determined in mouse (administered intraperitoneally) tested for 0.5 hours using inverted wire mesh ataxia test; conditions: ip
Mus musculus [17] = assay: Anticonvulsant activity was determined in mouse (administered intraperitoneally) tested for 0.5 hours using rotarod ataxia test (ADD program); conditions: ip
Mus musculus [18] = assay: Anticonvulsant activity was determined in mouse (administered intraperitoneally) tested for 2.0 hours using maximal electroshock test.; conditions: ip
Mus musculus [19] = assay: Anticonvulsant activity was determined in mouse (administered perorally) tested for 2.0 hours using maximal electroshock test; conditions: po
Mus musculus [20] = assay: Anticonvulsant activity was determined in mouse (administered intraperitoneally) tested for 2.0 hours using maximal electric shock test (ADD program); conditions: ip
Mus musculus [21] = assay: Anticonvulsant activity was determined in mouse (administered intraperitoneally) tested for 2.0 hours using rotarod ataxia test (ADD program); conditions: ip
Mus musculus [22] = assay: Anticonvulsant activity was determined in mouse (administered perorally) tested for 2.0 hours using maximal electric shock test (ADD program); conditions: po
Mus musculus [23] = assay: Anticonvulsant activity was determined in mouse (administered intraperitoneally) tested for 2.0 hours using inverted wire mesh ataxia test; conditions: ip
Mus musculus [24] = assay: Anticonvulsant activity was determined in mouse (administered perorally) tested for 2.0 hours using inverted wire mesh ataxia test; conditions: po
Mus musculus [25] = assay: Anticonvulsant activity was determined in mouse (administered intraperitoneally) tested for 2.0 hours using maximal electroshock test (ADD program); conditions: ip
Mus musculus [26] = assay: Anticonvulsant activity was determined in mouse (administered perorally) tested for 2.0 hours using rotarod ataxia test (ADD program); conditions: po
Mus musculus [27] = assay: Anticonvulsant activity was determined in mouse administered perorally tested for 2.0 hours using maximal electric shock test; conditions: po
Mus musculus [28] = assay: Anticonvulsant activity was determined in mouse (administered intraperitoneally) tested for 2.0 hours using electroshock test; conditions: ip

SMILES: CC(C)COc1cccc(N2CCCNCC2)n1
- MAD (Mus musculus [1]): 100 mg/kg
- minimal effective dose (Mus musculus [2]): 30 mg/kg

SMILES: c1cc(OCC2CCCCC2)nc(N2CCNCC2)c1
- MAD (Mus musculus [1]): 30 mg/kg
- minimal effective dose (Mus musculus [2]): 30 mg/kg

SMILES: CC(C)COc1cccc(N2CCN(C)CC2)n1
- MAD (Mus musculus [1]): 30 mg/kg
- minimal effective dose (Mus musculus [2]): 30 mg/kg

SMILES: CC(C)COc1cccc(N2CCCCC2)n1
- MAD (Mus musculus [1]): >300 mg/kg
- minimal effective dose (Mus musculus [2]): > 300 mg/kg

SMILES: Oc1cccc(N2CCNCC2)n1
- MAD (Mus musculus [1]): >300 mg/kg
- minimal effective dose (Mus musculus [2]): > 300 mg/kg

SMILES: CC(C)Oc1cccc(N2CCNCC2)n1
- MAD (Mus musculus [1]): <10 mg/kg
- minimal effective dose (Mus musculus [2]): 30 mg/kg

SMILES: c1cc(OCC2CC2)nc(N2CCNCC2)c1
- MAD (Mus musculus [1]): 10 mg/kg
- minimal effective dose (Mus musculus [2]): 10 mg/kg

SMILES: CN(C)CCOc1cccc(N2CCNCC2)n1
- MAD (Mus musculus [1]): >300 mg/kg
- minimal effective dose (Mus musculus [2]): > 300 mg/kg

SMILES: CC(C)COc1cccc(NCCN(C)C)n1
- MAD (Mus musculus [1]): 300 mg/kg
- minimal effective dose (Mus musculus [2]): 100 mg/kg

SMILES: COc1cccc(N2CCNCC2)n1
- MAD (Mus musculus [1]): 10 mg/kg
- minimal effective dose (Mus musculus [2]): 30 mg/kg

SMILES: c1cc(OC2CCCCC2)nc(N2CCNCC2)c1
- MAD (Mus musculus [1]): 10 mg/kg
- minimal effective dose (Mus musculus [2]): 30 mg/kg

SMILES: CC(C)COc1cccc(N2CCNCC2)n1
- ED10 (Mus musculus [3]): 115 mg/kg
- ED50 (Mus musculus [3]): 139 mg/kg
- ED90 (Mus musculus [3]): 164 mg/kg
- MAD (Mus musculus [1]): 30 mg/kg
- ED10 (Mus musculus [4]): 11 mg/kg
- ED50 (Mus musculus [4]): 35 mg/kg
- ED90 (Mus musculus [4]): 114 mg/kg
- minimal effective dose (Mus musculus [2]): 10 mg/kg
- ED10 (Mus musculus [5]): 5 mg/kg
- ED90 (Mus musculus [5]): 11.2 mg/kg
- ED50 (Mus musculus [6]): 7.5 mg/kg
- ED10 (Mus musculus [7]): 5.4 mg/kg
- ED90 (Mus musculus [7]): 10.7 mg/kg
- ED50 (Mus musculus [8]): 19 mg/kg
- ED10 (Rattus norvegicus [9]): 6.6 mg/kg
- ED50 (Rattus norvegicus [9]): 36 mg/kg
- ED90 (Rattus norvegicus [9]): 195 mg/kg
- ED10 (Mus musculus [10]): 7.6 mg/kg
- ED50 (Mus musculus [10]): 11.1 mg/kg
- ED90 (Mus musculus [10]): 17 mg/kg
- ED10 (Mus musculus [11]): 10.7 mg/kg
- ED90 (Mus musculus [11]): 35 mg/kg
- ED10 (Rattus norvegicus [12]): 340 mg/kg
- ED50 (Rattus norvegicus [12]): 525 mg/kg
- ED90 (Rattus norvegicus [12]): 830 mg/kg
- ED50 (Mus musculus [13]): 16 mg/kg
- ED50 (Mus musculus [14]): 46 mg/kg
- ED50 (Mus musculus [15]): 7.5 mg/kg
- ED10 (Mus musculus [16]): 6.6 mg/kg
- ED90 (Mus musculus [16]): 39 mg/kg
- ED10 (Mus musculus [17]): 30 mg/kg
- ED90 (Mus musculus [17]): 69 mg/kg

SMILES: CCOc1cccc(N2CCNCC2)n1
- MAD (Mus musculus [1]): 10 mg/kg
- minimal effective dose (Mus musculus [2]): 30 mg/kg

SMILES: CC(C)COc1cccc(N2CCOCC2)n1
- MAD (Mus musculus [1]): 300 mg/kg
- minimal effective dose (Mus musculus [2]): 300 mg/kg

SMILES: O=C1NC(=O)C(c2ccccc2)(c2ccccc2)N1 [PHENYTOIN]
- ED10 (Mus musculus [18]): 3.7 mg/kg
- ED90 (Mus musculus [18]): 15 mg/kg
- ED10 (Mus musculus [19]): 4.9 mg/kg
- ED90 (Mus musculus [19]): 14 mg/kg
- ED90 (Mus musculus [20]): 13 mg/kg
- ED10 (Mus musculus [21]): 60 mg/kg
- ED50 (Mus musculus [21]): 71 mg/kg
- ED90 (Mus musculus [21]): 86 mg/kg
- ED50 (Mus musculus [22]): 9.8 mg/kg
- ED50 (Rattus norvegicus [9]): 33 mg/kg
- ED10 (Mus musculus [23]): 33 mg/kg
- ED50 (Mus musculus [23]): 45 mg/kg
- ED90 (Mus musculus [23]): 63 mg/kg
- ED10 (Mus musculus [24]): 50 mg/kg
- ED50 (Mus musculus [24]): 78 mg/kg
- ED90 (Mus musculus [24]): 125 mg/kg
- ED10 (Mus musculus [25]): 8.4 mg/kg
- ED50 (Mus musculus [25]): 10.4 mg/kg
- ED50 (Rattus norvegicus [12]): > 3000 mg/kg
- ED50 (Mus musculus [26]): 95 mg/kg
- ED50 (Mus musculus [27]): 8.3 mg/kg
- ED50 (Mus musculus [28]): 7.4 mg/kg
